Consider 19 compounds from ChEMBL document CHEMBL4145522, “Design, synthesis and biological evaluation of non-secosteriodal vitamin D receptor ligand bearing double side chain for the treatment of chronic pancreatitis” (Eur J Med Chem, 2018).

Data set [1] deals with Mus musculus. Kind of data set: Toxicity in caerulein induced chronic pancreatic C57BL/6J mouse model assessed as serum calcium levels at 0.5 mg/kg, po administered via gavage treated for 5 times per week measured after 3 days (reference value: 0.25 umol/ml). It is filed as organism-based. The following applies: in vivo, 72 h.
In data set [2] the target is T1, Vitamin D3 receptor (Homo sapiens) (UniProt P11473).
T1 sequence (whole entry): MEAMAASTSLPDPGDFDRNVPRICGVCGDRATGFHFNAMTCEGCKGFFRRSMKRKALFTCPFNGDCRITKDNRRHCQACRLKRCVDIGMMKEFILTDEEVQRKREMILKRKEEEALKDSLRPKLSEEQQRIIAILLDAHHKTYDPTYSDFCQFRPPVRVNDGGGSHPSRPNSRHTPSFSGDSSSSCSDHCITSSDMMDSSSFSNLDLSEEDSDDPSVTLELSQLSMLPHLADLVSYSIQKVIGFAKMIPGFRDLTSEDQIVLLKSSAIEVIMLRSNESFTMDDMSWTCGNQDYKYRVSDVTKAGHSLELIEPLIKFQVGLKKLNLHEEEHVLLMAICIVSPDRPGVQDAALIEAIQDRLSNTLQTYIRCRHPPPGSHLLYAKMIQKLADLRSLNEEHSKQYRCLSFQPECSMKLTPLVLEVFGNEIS
Kind of data set: Transactivation of VDR (unknown origin) expressed in HEK293 cells harboring pENTER-CMV-human RXRalpha at 10^-8M to 10^-6M after 24 hrs by luciferase reporter gene assay. It is filed as cell-based. Background: In a reporter assay the amount or activity of a reporter protein is the signal.

Data set [3] in a line: (§1) Antifibrotic activity against TGFbeta1 stimulated rat LTC-14 cells assessed as inhibition of collagen 1 synthesis at 0.5 uM after 24 hrs by ELISA relative to calcipotriol. The following applies: LTC-14, 24 h. It is filed as functional. For orientation: In an ELISA, binding on a coated surface is turned into a signal by an enzyme label.
The species named for data set [4] is Rattus norvegicus. Put plainly: Antifibrotic activity against TGFbeta1 stimulated rat LTC-14 cells assessed as inhibition of collagen 1 level at 500 nM after 24 hrs by Western blot. The class given is functional.
For data set [5], the species on record is Rattus norvegicus. Kind of data set: Antifibrotic activity against TGFbeta1 stimulated rat LTC-14 cells assessed as inhibition of alpha-SMA level at 500 nM after 24 hrs by Western blot. It is filed as functional. On the technique in general: In western blotting, separated proteins are transferred to a membrane and probed.
Data set [6] is filed under the species Rattus norvegicus. Kind of data set: Antifibrotic activity against TGFbeta1 stimulated rat LTC-14 cells assessed as inhibition of collagen 1 alpha 1 mRNA expression at 500 nM after 24 hrs by RT-qPCR analysis. The class given is functional.
For data set [7], the species on record is Rattus norvegicus. Put plainly: Antifibrotic activity against TGFbeta1 stimulated rat LTC-14 cells assessed as inhibition of alpha-SMA mRNA expression at 500 nM after 24 hrs by RT-qPCR analysis. The class given is functional.
Data set [8] deals with Mus musculus. Put plainly: Toxicity in caerulein induced chronic pancreatic C57BL/6J mouse model assessed as reduction in body weight at 0.5 mg/kg, po administered via gavage treated for 5 times per week measured after 3 days. It is filed as organism-based. The following applies: in vivo, 72 h.
The species entered for data set [9] is Rattus norvegicus. Described as §1. It is filed as functional.
Data set [10] concerns Mus musculus. Kind of data set: Toxicity in caerulein induced chronic pancreatic C57BL/6J mouse model assessed as change in serum calcium levels at 0.5 mg/kg, po administered via gavage treated for 5 times per week measured after 3 days. The settings on record: in vivo, 72 h. The class given is organism-based.
Data set [11] addresses T1, Vitamin D3 receptor (Homo sapiens). Kind of data set: Transactivation of VDR (unknown origin) expressed in HEK293 cells harboring pENTER-CMV-human RXRalpha after 24 hrs by luciferase reporter gene assay. The class given is cell-based.
The nature of data set [12]: AUC (0 to infinity) in C57BL/6J mouse at 10 mg/kg, iv by HPLC analysis. It is filed as ADME, organism-based. Set-up: dose 10 mg/kg, time infinity, route intravenous. The following applies: in vivo.
Data set [13] is described as follows: AUC (0 to infinity) in C57BL/6J mouse at 20 mg/kg, po by HPLC analysis. The settings on record: in vivo. It is filed as ADME, organism-based. Set-up: dose 20 mg/kg, route oral, time infinity.
Data set [14] in a line: Half life in C57BL/6J mouse at 10 mg/kg, iv by HPLC analysis. The settings on record: in vivo. It is filed as ADME, organism-based.
Data set [15] is described as follows: Half life in C57BL/6J mouse at 20 mg/kg, po by HPLC analysis. The class given is ADME, organism-based. The settings on record: in vivo.
Data set [16] in a line: MRT in C57BL/6J mouse at 10 mg/kg, iv by HPLC analysis. The class given is ADME, organism-based. The following applies: in vivo.
A short description of data set [17]: MRT in C57BL/6J mouse at 20 mg/kg, po by HPLC analysis. The following applies: in vivo. It is filed as ADME, organism-based.
The nature of data set [18]: Clearance in C57BL/6J mouse at 10 mg/kg, iv by HPLC analysis. It is filed as ADME, organism-based. The following applies: in vivo.
Data set [19] can be described thus: Clearance in C57BL/6J mouse at 20 mg/kg, po by HPLC analysis. The class given is ADME, organism-based. The following applies: in vivo.
A short description of data set [20]: Oral bioavailability in C57BL/6J mouse at 20 mg/kg by HPLC analysis. The class given is ADME, organism-based. The following applies: in vivo.
Data set [21] concerns Mus musculus. Kind of data set: Antifibrotic activity in caerulein induced chronic pancreatic C57BL/6J mouse model assessed as inhibition of pancreas lesions at 0.5 mg/kg, po administered via gavage treated for 5 times per week measured after 3 days by hematoxylin and eosin staining based histopathological analysis. It is filed as functional, organism-based.
Data set [22] relates to Mus musculus. Kind of data set: Antifibrotic activity in caerulein induced chronic pancreatic C57BL/6J mouse model assessed as inhibition of collagen deposition at 0.5 mg/kg, po administered via gavage treated for 5 times per week measured after 3 days by Masson's trichrome staining based histopathological analysis. It is filed as functional, organism-based.
Data set [23] concerns Mus musculus. Put plainly: Antifibrotic activity in caerulein induced chronic pancreatic C57BL/6J mouse model assessed as inhibition of alpha-SMA expression in interstitial area of pancreas tissue at 0.5 mg/kg, po administered via gavage treated for 5 times per week measured after 3 days by immunohistochemistry analysis. The class given is functional, organism-based.
The subject of data set [24] is Mus musculus. Put plainly: Toxicity in caerulein induced chronic pancreatic C57BL/6J mouse model assessed as change in body weight at 0.5 mg/kg, po administered via gavage treated for 5 times per week measured after 3 days. The class given is organism-based. The settings on record: in vivo, 72 h.

Calls of active or inactive are those of the source. No cut-off for these calls is given here.

For orientation: inhibition means the relative decrease from the control value, in per cent. Turning to `C=C1/C(=C\C=C2/CCC[C@]3(C)[C@@H]([C@H](C)/C=C/[C@@H](O)C4CC4)CC[C@@H]23)C[C@@H](O)C[C@@H]1O` [CALCIPOTRIENE], the Activity with Mus musculus [1] was 0.37 µmol/mL; in the data set on Mus musculus [8] it was “Toxic”. For the same compound, the result in data set [2] was Active. Also, the inhibition at 0.5 µM in data set [3] was found to be 100%. Besides, the inhibition entry in the data set filed under Rattus norvegicus [4], in the data set listed under Rattus norvegicus [5], in the data set listed under Rattus norvegicus [6] and in the data set filed under Rattus norvegicus [7] was “Active” in each case.

For `CCC(CC)(c1ccc(OCCCCCCC(=O)O)c(C)c1)c1ccc(OCC(O)C(C)(C)C)c(OCC(O)C(C)(C)C)c1` (stereo not drawn), the inhibition entry in the data set listed under Rattus norvegicus [9] is “inactive”.

`CCC(CC)(c1ccc(OS(=O)(=O)c2ccc([N+](=O)[O-])cc2)c(C)c1)c1ccc(OCC(O)C(C)(C)C)c(OCC(O)C(C)(C)C)c1` (stereo not drawn): in data set [3], the inhibition at 0.5 µM worked out at 82%.

What is called AUC(0-inf) is total exposure, with the tail of the curve extrapolated. A high value points to more exposure. By half-life is commonly meant the time in which the quantity being followed falls by half. Broadly, the MRT is the average time that molecules of a dose stay in the body. As usually defined, the clearance is a measure of how efficiently the substance is removed, as volume per time. A word on the CL/F: it is the apparent clearance, not corrected for the fraction that reaches the circulation. One may read the bioavailability as dose-corrected exposure relative to a reference, in per cent. `CCC(CC)(c1ccc(OCCCO)c(C)c1)c1ccc(OCC(O)C(C)(C)C)c(OCC(O)C(C)(C)C)c1` (stereo not drawn): the Activity result is “Non-Toxic” with Mus musculus [10], “Dose-dependent effect” in data set [11] and “Non-Toxic” in the data set with Mus musculus [24]. Further, in data set [3], the inhibition at 0.5 µM is 172%. The inhibition entry in the data set listed under Rattus norvegicus [4], in the data set filed under Rattus norvegicus [5], in the data set filed under Rattus norvegicus [6], in the data set listed under Rattus norvegicus [7], in the data set on Mus musculus [21] and with Mus musculus [22] was “Active” in each case. Besides, the inhibition result in the data set with Mus musculus [23] was “Active”. For the same compound, the AUC(0-inf) in [12] turned out to be 32600 ng·h/mL; in data set [13], 20600 ng·h/mL. Further, the half-life in [14] is 2.66 h; in data set [15] it was 4.12 h. The MRT in data set [16] came out at 4.65 h; in data set [17], 6.59 h. The clearance in data set [18] is 5.17 mL/min. Also, in data set [19], the CL/F was 20.2 mL/min. Besides, in [20], the bioavailability is 31.6%.

Take `CCC(CC)(c1ccc(OCC(O)CO)c(C)c1)c1ccc(OCC(O)C(C)(C)C)c(C)c1` (stereo not drawn) [LG-190178]: the outcome in [2] was Active. Further, in [3], the inhibition at 0.5 µM came to 97%. In addition, the inhibition entry in the data set filed under Rattus norvegicus [4], in the data set filed under Rattus norvegicus [5], in the data set filed under Rattus norvegicus [6] and in the data set listed under Rattus norvegicus [7] was “Active” throughout.

As to `CCC(CC)(c1ccc(OCC(=O)O)c(C)c1)c1ccc(OCC(O)C(C)(C)C)c(OCC(O)C(C)(C)C)c1` (stereo not drawn), the inhibition entry in the data set listed under Rattus norvegicus [9] was “inactive”.

As for `CCC(CC)(c1ccc(OCCCCCCO)c(C)c1)c1ccc(OCC(O)C(C)(C)C)c(OCC(O)C(C)(C)C)c1` (stereo not drawn), in data set [3], the inhibition at 0.5 µM was determined as 74%.

Regarding `CCC(CC)(c1ccc(OCC(O)CO)c(C)c1)c1ccc(OCC(O)C(C)(C)C)c(OCC(O)C(C)(C)C)c1` (stereo not drawn), the Activity result in [11] was “Dose-dependent effect”. For the same compound, in [3], the inhibition at 0.5 µM stood at 147%.

Turning to `CCC(CC)(c1ccc(OS(=O)(=O)c2ccc(C)cc2)c(C)c1)c1ccc(OCC(=O)C(C)(C)C)c(OCC(=O)C(C)(C)C)c1`, the inhibition at 0.5 µM in [3] is 85%. Also, the inhibition result in the data set filed under Rattus norvegicus [4] and in the data set filed under Rattus norvegicus [5] was “Active” throughout.

Consider `CCC(CC)(c1ccc(OCCCCO)c(C)c1)c1ccc(OCC(O)C(C)(C)C)c(OCC(O)C(C)(C)C)c1` (stereo not drawn), for which the Activity result in data set [11] is “Dose-dependent effect”. Besides, the inhibition at 0.5 µM in [3] amounted to 189%. Moreover, the inhibition entry in the data set filed under Rattus norvegicus [4] and in the data set listed under Rattus norvegicus [5] was “Active” throughout.

Turning to `CCC(CC)(c1ccc(OCCCCC(=O)O)c(C)c1)c1ccc(OCC(O)C(C)(C)C)c(OCC(O)C(C)(C)C)c1` (stereo not drawn), the inhibition entry in the data set listed under Rattus norvegicus [9] was “inactive”.

`CCC(CC)(c1ccc(OS(C)(=O)=O)c(C)c1)c1ccc(OCC(O)C(C)(C)C)c(OCC(O)C(C)(C)C)c1` (stereo not drawn): the inhibition at 0.5 µM in [3] was 8%.

Regarding `CCC(CC)(c1ccc(OCCCCCCCO)c(C)c1)c1ccc(OCC(O)C(C)(C)C)c(OCC(O)C(C)(C)C)c1` (stereo not drawn), the inhibition entry in the data set filed under Rattus norvegicus [9] was “inactive”.

Regarding `CCC(CC)(c1ccc(OCCCCCC(=O)O)c(C)c1)c1ccc(OCC(O)C(C)(C)C)c(OCC(O)C(C)(C)C)c1` (stereo not drawn), in the data set filed under Rattus norvegicus [9], the inhibition result is “inactive”.

With `CCC(CC)(c1ccc(OS(=O)(=O)c2ccccc2)c(C)c1)c1ccc(OCC(O)C(C)(C)C)c(OCC(O)C(C)(C)C)c1` (stereo not drawn), in data set [3], the inhibition at 0.5 µM came out at 23%.

In the case of `CCC(CC)(c1ccc(OCCCCCO)c(C)c1)c1ccc(OCC(O)C(C)(C)C)c(OCC(O)C(C)(C)C)c1` (stereo not drawn), the inhibition at 0.5 µM in data set [3] turned out to be 133%.

For the compound `CCC(CC)(c1ccc(OS(=O)(=O)c2ccc(C)cc2)c(C)c1)c1ccc(OCC(O)C(C)(C)C)c(OCC(O)C(C)(C)C)c1` (stereo not drawn), in data set [3], the inhibition at 0.5 µM was 137%.

For the compound `CCC(CC)(c1ccc(OCCO)c(C)c1)c1ccc(OCC(O)C(C)(C)C)c(OCC(O)C(C)(C)C)c1` (stereo not drawn), the inhibition at 0.5 µM in [3] came out at 128%. Moreover, the inhibition result in the data set listed under Rattus norvegicus [4] and in the data set listed under Rattus norvegicus [5] was “Active” throughout.

With `CCC(CC)(c1ccc(OCCCC(=O)O)c(C)c1)c1ccc(OCC(O)C(C)(C)C)c(OCC(O)C(C)(C)C)c1` (stereo not drawn), the inhibition result in the data set filed under Rattus norvegicus [9] was “inactive”.
